# Columns and labels:
# PLOD3 = target: T1, PLOD3 (Homo sapiens, UniProt O60568); assay: direct LC-MS/MS profiling of modified tryptic peptides; type: cell-based; settings: covalent at Cys691; H358 cells, […] AMG510, […] h (methods print […] h)
# T1 sequence (O60568 25-738): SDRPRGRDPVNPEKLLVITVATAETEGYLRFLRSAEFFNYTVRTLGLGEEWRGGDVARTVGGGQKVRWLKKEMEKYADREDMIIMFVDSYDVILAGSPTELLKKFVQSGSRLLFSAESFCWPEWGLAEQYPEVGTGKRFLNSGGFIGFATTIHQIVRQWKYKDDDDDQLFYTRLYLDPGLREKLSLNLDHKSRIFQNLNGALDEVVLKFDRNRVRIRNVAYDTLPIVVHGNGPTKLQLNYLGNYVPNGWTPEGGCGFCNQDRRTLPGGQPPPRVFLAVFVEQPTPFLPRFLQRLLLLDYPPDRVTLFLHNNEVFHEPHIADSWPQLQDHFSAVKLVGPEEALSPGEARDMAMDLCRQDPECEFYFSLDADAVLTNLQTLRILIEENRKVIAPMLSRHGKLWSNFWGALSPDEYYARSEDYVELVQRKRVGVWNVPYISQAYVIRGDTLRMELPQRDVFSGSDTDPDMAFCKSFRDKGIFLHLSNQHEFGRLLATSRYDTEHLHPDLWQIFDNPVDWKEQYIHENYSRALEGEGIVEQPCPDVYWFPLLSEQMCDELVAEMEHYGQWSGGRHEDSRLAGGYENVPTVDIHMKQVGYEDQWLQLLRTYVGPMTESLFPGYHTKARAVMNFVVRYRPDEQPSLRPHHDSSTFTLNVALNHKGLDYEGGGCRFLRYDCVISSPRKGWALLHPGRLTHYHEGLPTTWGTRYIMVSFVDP
# RTN4 = target: T2, RTN4 (Homo sapiens, UniProt Q9NQC3); assay: as above; type: cell-based; settings: covalent at Cys1101; H358 cells, […] AMG510, […] h (methods print […] h)
# T2 sequence (Q9NQC3 1-1192): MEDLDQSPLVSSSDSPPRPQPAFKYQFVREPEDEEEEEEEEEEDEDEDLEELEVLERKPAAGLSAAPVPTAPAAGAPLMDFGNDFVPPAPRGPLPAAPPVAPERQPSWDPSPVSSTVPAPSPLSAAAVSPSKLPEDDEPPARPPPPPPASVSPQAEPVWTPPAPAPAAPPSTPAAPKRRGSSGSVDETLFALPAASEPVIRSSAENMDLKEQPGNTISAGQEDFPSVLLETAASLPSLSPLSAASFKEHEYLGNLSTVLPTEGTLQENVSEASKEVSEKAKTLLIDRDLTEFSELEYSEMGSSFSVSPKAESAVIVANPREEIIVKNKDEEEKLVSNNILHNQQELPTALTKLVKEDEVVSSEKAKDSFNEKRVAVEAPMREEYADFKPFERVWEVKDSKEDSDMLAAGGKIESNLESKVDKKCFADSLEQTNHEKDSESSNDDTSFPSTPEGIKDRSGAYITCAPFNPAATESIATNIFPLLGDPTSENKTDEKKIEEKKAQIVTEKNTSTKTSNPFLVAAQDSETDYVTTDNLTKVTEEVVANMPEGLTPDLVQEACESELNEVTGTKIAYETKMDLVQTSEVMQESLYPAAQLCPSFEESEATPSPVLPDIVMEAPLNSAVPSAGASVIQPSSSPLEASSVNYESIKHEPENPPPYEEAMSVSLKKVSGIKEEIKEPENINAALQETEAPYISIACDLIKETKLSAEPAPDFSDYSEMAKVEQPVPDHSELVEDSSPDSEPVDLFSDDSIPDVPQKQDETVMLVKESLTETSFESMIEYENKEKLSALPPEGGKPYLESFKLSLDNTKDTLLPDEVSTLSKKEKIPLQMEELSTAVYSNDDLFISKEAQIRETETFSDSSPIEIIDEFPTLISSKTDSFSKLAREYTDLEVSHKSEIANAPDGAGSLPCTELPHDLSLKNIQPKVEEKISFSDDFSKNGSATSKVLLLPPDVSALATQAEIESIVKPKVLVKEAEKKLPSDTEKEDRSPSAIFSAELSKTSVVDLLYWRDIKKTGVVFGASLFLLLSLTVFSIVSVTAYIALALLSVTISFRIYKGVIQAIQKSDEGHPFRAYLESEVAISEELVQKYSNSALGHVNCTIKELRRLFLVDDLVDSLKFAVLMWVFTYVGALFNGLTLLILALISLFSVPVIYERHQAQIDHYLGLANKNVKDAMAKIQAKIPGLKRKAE
smiles,measurement,setting,value
C=CC(=O)N1CCN(c2nc(=O)n(-c3c(C)ccnc3C(C)C)c3nc(-c4c(O)cccc4F)c(F)cc23)[C@@H](C)C1 [AMG510],direct LC-MS/MS profiling of modified tryptic peptides,PLOD3,"They included enzymes (PLOD3 C691, RPE C5, SPTLC2 C99, UBE2O C370, and TK1 C3)"
same,direct LC-MS/MS profiling of modified tryptic peptides,RTN4,off-targets that were identified in previous studies (RTN4 C1101 and HMOX2 C282)

# Reference: PMC9942120 (iScience, 2023)
